Test results reported in patent US4438136A, “Prostaglandins” (National Research Development Corporation, priority 1979, dated 1984).

How the values were obtained:
[1] = molecular target: T1, Human Platelets (Homo sapiens, UniProt P21731); experiment: Human Platelet System: antagonism of platelet aggregation induced by 11,9-(epoxymethano) PGH2; type: cell-based; conditions: for Kb: vs 11,9-epoxymethano PGH2 (1×10^-7 to 5×10^-7 M), compound added 5 minutes before, Gaddum-Schild, read-out: AFFINITY CONSTANTS (KB) Human Platelets (converted); for inhibition of aggregatory activity of 11,9-(epoxymethano) PGH2 / antagonism in platelet test: human platelets in vitro, in words
T1 construct: Platelet-rich plasma is obtained from fresh, citrated human blood; endogenous in cells; host or cells: human platelets (platelet-rich plasma from citrated blood)
T1 sequence (P21731 1-343): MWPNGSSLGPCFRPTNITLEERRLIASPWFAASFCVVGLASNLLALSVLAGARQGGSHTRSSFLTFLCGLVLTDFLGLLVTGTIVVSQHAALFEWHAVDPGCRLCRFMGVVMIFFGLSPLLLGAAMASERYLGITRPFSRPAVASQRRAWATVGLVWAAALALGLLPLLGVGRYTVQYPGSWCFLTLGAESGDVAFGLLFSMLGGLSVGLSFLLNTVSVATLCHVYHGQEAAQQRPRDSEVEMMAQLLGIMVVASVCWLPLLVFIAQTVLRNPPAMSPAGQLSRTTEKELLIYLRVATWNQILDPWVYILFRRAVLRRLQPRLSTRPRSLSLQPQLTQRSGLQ
Description: (§1) It is believed that such inhibition is the result of the compounds being thromboxane antagonists and the activity of the compounds is for convenience hereinafter discussed in these terms. […] The related compounds described and claimed in our copending application Ser. No. 431,554 filed Sept. […] Structural features which tend to endow these compounds with a more pure antagonist form of activity are described in that application. It has been found, however, that the compounds of the present invention generally show little tendency to deviate from pure antagonist activity. Activity has also been observed on compounds according to the present invention on guinea pigs tracheal muscle.
(§2) Various of the compounds described in Examples 1 to 3 are tested for biological activity in the human platelet and rabbit aorta systems.
Platelet-rich plasma is obtained from fresh, citrated human blood. Addition of the 11,9-epoxymethano analogue of PGH2 (1×10^-7 to 5×10^-7 M) causes immediate aggregation recorded as an increase in light transmission (600 nm). In a second experiment the individual compounds are added 5 minutes previously to addition of the PGH2 analogue. The dose of the PGH2 analogue added is then increased to a level which gives a similar response to that obtained in the absence of antogonist. The affinity constant, KB, for the compound is calculated according to the Gaddum-Schild Equation (based on Law of Mass Action).
(§3) [B]=molar concentration of compound

[2] = molecular target: T2, Rabbit Aorta (Oryctolagus cuniculus, UniProt Q6WQI8); experiment: Rabbit Aorta System: antagonism of contraction of aorta strips induced by 11,9-(epoxymethano) PGH2; type: cell-based; conditions: for Kb: read-out: AFFINITY CONSTANTS (KB) Rabbit Aorta (converted); for antagonist/agonist character in rabbit aorta strip test: in words
T2 construct: contraction by 11,9-(epoxymethano)PGH2 (U-46619)
T2 sequence (Q6WQI8 1-233): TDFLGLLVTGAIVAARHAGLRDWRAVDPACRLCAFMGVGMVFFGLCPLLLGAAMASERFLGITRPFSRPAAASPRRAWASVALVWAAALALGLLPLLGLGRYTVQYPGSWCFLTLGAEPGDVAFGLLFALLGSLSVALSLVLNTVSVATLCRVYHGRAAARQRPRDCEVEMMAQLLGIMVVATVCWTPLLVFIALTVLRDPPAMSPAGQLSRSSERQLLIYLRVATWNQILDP
Description: as §1, §2, §3
Spiral strips of thoracic aorta are suspended in Kreb's-Henseleit solution and aerated with 95% O2 /5% CO2 at 37° C. Tension changes are recorded with a Grass FTO3 force transducer. Initially, cumulative dose response curves to 11,9-(epoxymethano) PGH2 (2×10^-9, 1×10^-8, 5×10^-8 and 2.5×10^-7 M) are obtained. In a second experiment the individual compounds are added 30 mins previous to the addition of the series of agonist doses. Affinity constants are calculated as above.

[3] = test system: Human Platelets; experiment: Antagonism of ADP aggregatory action on platelets; type: cell-based
[4] = test system: platelet; experiment: Block of aggregatory action of arachidonic acid on platelets; type: cell-based, human; conditions: in words
[5] = test system: α-adrenoceptors; experiment: Block of contractile action of noradrenaline (α-adrenoceptors); type: cell-based, rabbit; conditions: in words
[6] = vs 11,9-(epoxymethano) PGH2, compound added 30 mins before, Gaddum-Schild

Kb [1] | Kb [2, 6] | Compound | also measured
4760 nM | 1280 nM | O=C(O)CCC/C=C\C[C@H]1[C@H]2CC[C@H](C2)[C@@H]1C=NNC(=O)c1ccc(F)cc1 (relative stereo) [drawing 24] | 
19200 nM | 2700 nM | O=C(O)CCC/C=C\C[C@H]1[C@H]2CC[C@H](C2)[C@@H]1C=NNC(=O)COc1ccccc1 (relative stereo) | 
1390 nM | 256 nM | O=C(O)CCC/C=C\C[C@H]1[C@H]2CC[C@H](C2)[C@@H]1C=NNC(=O)C(c1ccccc1)c1ccccc1 (relative stereo) | Kb ([3]; antagonism of ADP, table head gives liters/mole, 5 min): 8330 nM; antagonism of ADP ([3]; in words): Slight antagonism of ADP
 | 1490 nM | O=C(O)CCC/C=C\C[C@H]1[C@H]2CC[C@H](C2)[C@@H]1C=NNC(=O)Cc1ccccc1 (relative stereo) | 
10000 nM |  | CN(C)c1ccc(C(=O)NN=C[C@H]2[C@@H]3CC[C@@H](C3)[C@@H]2C/C=C\CCCC(=O)O)cc1 (relative stereo) | AFFINITY CONSTANTS (KB) Rabbit Aorta [2, 6]: < 2.5e-05 L/mol
1430 nM | 769 nM | O=C(O)CCC/C=C\C[C@H]1[C@H]2CC[C@H](C2)[C@@H]1C=NNC(=O)Nc1ccccc1 (relative stereo) [drawing 31] | 
 |  | O=C(O)CCC/C=C\C[C@H]1[C@H]2CC[C@H](C2)[C@@H]1C=NNC(=O)c1ccc(F)cc1 (relative stereo) [Example 1, 5-endo-(6'-Caboxyhex-2'Z-enyl)-6-exo-(N-p-fluorobenzoylhydrazonomethyl)-bicyclo[2,2,1]heptane] | block of aggregatory action of arachidonic acid [4]: block the aggregatory action of archidonic acid; inhibition of aggregatory activity of 11,9-(epoxymethano) PGH2 / antagonism in platelet test [1]: antagonists in the platelet test; block of contractile action of noradrenaline [5]: do not block the contractile action of noradrenaline; antagonist/agonist character in rabbit aorta strip test [2]: pure antagonists in the rabbit aorta strip test
1450 nM | 1200 nM | O=C(O)CCCCCC[C@H]1[C@H]2CC[C@H](C2)[C@@H]1C=NNC(=O)Nc1ccccc1 (relative stereo) | 
 |  | O=C(O)CCC/C=C\C[C@H]1[C@H]2CC[C@H](C2)[C@@H]1C=NNC(=O)Nc1ccccc1 (relative stereo) [Example 3, 5-endo-(6'-carboxyhex-2'Z-enyl)-6-exo-[N-(phenylcarbamoyl)-hydrazonomethyl]-bicyclo[2,2,1]heptane] | block of aggregatory action of arachidonic acid [4]: block the aggregatory action of archidonic acid; inhibition of aggregatory activity of 11,9-(epoxymethano) PGH2 / antagonism in platelet test [1]: antagonists in the platelet test; block of contractile action of noradrenaline [5]: do not block the contractile action of noradrenaline; antagonist/agonist character in rabbit aorta strip test [2]: pure antagonists in the rabbit aorta strip test
 | 5000 nM | COc1ccc(C(=O)NN=C[C@H]2[C@@H]3CC[C@@H](C3)[C@@H]2C/C=C\CCCC(=O)O)cc1 (relative stereo) | 
500 nM | 1520 nM | O=C(O)CCC/C=C\C[C@H]1[C@H]2CC[C@H](C2)[C@@H]1C=NNC(=O)CC(c1ccccc1)c1ccccc1 (relative stereo) | 
